Laboratory results published in patent US10335423B2, “Inhibition of HIV infection through chemoprophylaxis” (THE UNITED STATES OF AMERICA, as represented by the …, priority 2006, dated 2019).
Structures can show the parent of a compound that is named as a salt. Where two headings read alike, the source gives them in different places.

Experiments:
[1] = human, in vivo, cited from earlier work
in vivo = conditions: rhesus monkey
Experimental: A dose of 22 mg/kg of tenofovir disoproxil fumarate (TDF) is given orally and 20 mg/kg of emtricitabine (FTC) given orally or subcutaneously to one group of adult male rhesus macaques.

[2] = tested on: simian immunodeficiency virus (SIV); conditions: monkey models challenged with SIV; cited from earlier work
SHIV = conditions: oral daily dosing, dose equivalent to that used in humans; cited from earlier work
SHIVSF162P3 [3] = experiment: Repeated weekly rectal SHIV162p3 exposures under once daily prophylaxis (survival curves); format: in vivo, rhesus macaques
Experimental: A chimeric envelope SHIVSF162P3 isolate is used to inoculate the macaques. SHIVSF162P3 is a construct that contains the tat, rev, and env coding regions of HIV-1SF162 in a background of SIVmac239. This isolate was obtained from the National Institutes of Health (NIH) AIDS Research and Reference Reagent Program.^7,8 Virus exposures are performed 2 hours after drug treatment, and involved non-traumatic inoculation of 1 mL of SHIVSF162P3 (10 TCID50 or […]) into the rectal vault via a sterile gastric feeding tube.^9 Anesthetized macaques remained recumbent for at least 15 min after each intra-rectal inoculation.
The exact log-rank test is used for a discrete-time survival analysis of the treatment and control groups, with use of the number of inoculations as the time variable. The Cox proportional hazards model is used to estimate the relative hazard ratio (HR). Percent protection is calculated from the HR value using the formula: (1-1/HR)×100. All statistical analyses for calculation of the efficacy of the different interventions are performed using SAS software (version 9.1; SAS Institute) and StatXact software (version 6.3; Cytel).
Macaques are exposed rectally once weekly for up to 14 weeks to SHIV162p3 which contains an R5 tropic HIV-1 envelope that resembles naturally transmitted viruses. The SHIV162p3 challenge dose is 10 TCID50 or 7.6×10^5 RNA copies which is similar to HIV-1 RNA levels in semen during acute infection in humans.^11 Virus exposures are terminated when a macaque became infected. […] Three prophylactic drug treatments of increasing drug potency are each given once daily to a group of six macaques. Animals in Group 1 were treated subcutaneously with 20 mg/kg of FTC alone. Animals in Group 2 received orally a combination of FTC (20 mg/kg) and TDF (22 mg/kg). […] The rate of infection in each group is compared with that seen in 18 untreated control macaques (9 real time and 9 historical controls).
All treated macaques received the corresponding drugs 7 to 9 days prior to the first virus inoculation to achieve steady-state plasma levels. Treated animals that remained uninfected during the 14 challenges received 28 days of post-exposure prophylaxis after the last challenge. Protection was defined as absence of persistent viremia and seroconversion.
Data with TDF (20 mg/kg) is also provided for comparison.

SHIVSF162P3 [4] = experiment: SHIV plasma viral load (real-time PCR) in breakthrough infections; format: in vivo, rhesus macaques
Experimental: Plasma RNA is quantified using a real-time PCR assay as previously described.^5 This assay has a sensitivity of detection of 50 RNA copies/ml or 10 copies of a pVp1 plasmid carrying the SIVmac239 RT gene. HIV-1 RNA is extracted from 1 mL of plasma using the NucliSens extraction method (bioMerieux). A known amount of virus particles (3×10^5) from an HIV-1 CM240 virus stock is added to each sample prior to extraction to control for the efficiency of extraction. Reverse transcription is performed using 10 microliters (μl) of extracted RNA and the 2-step TaqMan Gold reverse-transcriptase (RT)—PCR kit (Applied Biosystems) according to the manufacturer's instructions. PCR reactions are performed as described using an ABI 7000 […] (Applied Biosystems). Virus loads are calculated from a standard curve generated with known amount of virus particles. All primers and probes used for SIVmac239 and HIV-1 CM240 have been reported elsewhere.^5 HIV-1 CM240 is obtained from the National Institutes of Health (NIH) AIDS Research and Reference Reagent Program.
Since the dynamics of breakthrough infections that occur during inventive prophylaxis and drug resistance emergence are unknown, the 6 infected animals from Groups 1 and 2 are followed under continued drug treatment. FIG. 3 compares the virus load kinetics in the 6 breakthrough infections with those in 12 untreated macaques that had sufficient follow-up samples. The mean peak viremia in the 6 treated macaques was 4.9±0.5 log10 RNA copies/ml, 2.0 log10 lower than in untreated controls (6.9±0.3 log10 RNA). […] In contrast, all 12 untreated macaques had detectable virus loads during a median follow-up period of 7 weeks (range=5-36 weeks). The arrow in FIG. 4 denotes the first detectable antibody response. Grey circles indicate detectable M184V/I mutation; wild type sequences are shown in black full circles. Open circles are provided for data points not genotyped.

In the case of `CC(C)OC(=O)OCOP(=O)(CO[C@H](C)Cn1cnc2c(N)ncnc21)OCOC(=O)OC(C)C` [TDF, tenofovir disoproxil fumarate], the AUC ([1]; 300 mg) is listed as 5020 ng·h/mL and the “area-under the plasma concentration-time curve over a 24 h interval (AUC)” value (in vivo; male, po, 22 mg/kg) is listed as 4490 ng·h/mL.
In the case of `C[C@H](Cn1cnc2c(N)ncnc21)OCP(=O)(O)O` [tenofovir], the prophylactic activity [2] is listed as “Prophylactic activity has been demonstrated” and the “protection against rectal SHIV transmission” value (SHIV) is listed as “partially protective”.
In the case of `Nc1nc(=O)n([C@@H]2CS[C@H](CO)O2)cc1F` [FTC, emtricitabine], the AUC ([1]; po, 200 mg) is listed as 10000 ± 3120 ng·h/mL, the “exposure with first detectable viral RNA” value (SHIVSF162P3 [3]; animal AG-07) is listed as 13 and the “exposure with first detectable viral RNA” value (SHIVSF162P3 [3]; animal AG-46) is listed as 10. The “exposure with first detectable viral RNA” value (SHIVSF162P3 [3]; animal AG-80) was 5, the “exposure with first detectable viral RNA” value (SHIVSF162P3 [3]; animal AH-04) was 12 and the “Cox proportional hazard ratio [HR] (fold reduction of infection compared to controls)” value (SHIVSF162P3 [3]; compared to 18 untreated controls) was 3.8. The “infection / survival analysis compared to untreated controls” value (SHIVSF162P3 [3]; compared to untreated controls) was “statistically significant difference”, the “macaques that became infected” value (SHIVSF162P3 [3]; of 6 macaques per group, once daily treatment, up to 14 rectal exposures) was 4 and the “macaques remaining uninfected / protected after 14 exposures” value (SHIVSF162P3 [3]; of 6 macaques per group, once daily treatment, weekly rectal SHIV162p3) was 2. For the same compound, the “protection compared with TDF alone” value (SHIVSF162P3 [3]; versus 4 animals previously receiving TDF, difference not statistically significant (p=0.5)) was “higher than that previously seen in 4 animals receiving TDF”, the “time after the peak in viremia to undetectable virus loads” value (“time after the peak in viremia” for short) (SHIVSF162P3 [4]; animal AG-07) was 7 weeks and the “time after the peak in viremia” value (SHIVSF162P3 [4]; animal AG-80) was 3 weeks. The “time after the peak in viremia” value (SHIVSF162P3 [4]; animal AH-04) was 4 weeks, the viremia during follow-up (SHIVSF162P3 [4]; for up to 20 weeks, animals AG-80, AH-04, AG-07, AG-81) was “consistently low or undetectable” and the AUC (in vivo; male, 20 mg/kg) was 11000 ng·h/mL. The “plasma FTC levels after subcutaneous administration” value (in vivo) was “comparable to those achieved during oral administration”.
